Assays:
Type in all cases: binding
panel of 442 kinases [1] = biological target: T1, panel of 442 kinases (Homo sapiens, UniProt P36888, D835Y); settings: Compound Concentration 10 µM
T1 construct: purchased KINOMEscan
T1 sequence (P36888 27-993 D835Y): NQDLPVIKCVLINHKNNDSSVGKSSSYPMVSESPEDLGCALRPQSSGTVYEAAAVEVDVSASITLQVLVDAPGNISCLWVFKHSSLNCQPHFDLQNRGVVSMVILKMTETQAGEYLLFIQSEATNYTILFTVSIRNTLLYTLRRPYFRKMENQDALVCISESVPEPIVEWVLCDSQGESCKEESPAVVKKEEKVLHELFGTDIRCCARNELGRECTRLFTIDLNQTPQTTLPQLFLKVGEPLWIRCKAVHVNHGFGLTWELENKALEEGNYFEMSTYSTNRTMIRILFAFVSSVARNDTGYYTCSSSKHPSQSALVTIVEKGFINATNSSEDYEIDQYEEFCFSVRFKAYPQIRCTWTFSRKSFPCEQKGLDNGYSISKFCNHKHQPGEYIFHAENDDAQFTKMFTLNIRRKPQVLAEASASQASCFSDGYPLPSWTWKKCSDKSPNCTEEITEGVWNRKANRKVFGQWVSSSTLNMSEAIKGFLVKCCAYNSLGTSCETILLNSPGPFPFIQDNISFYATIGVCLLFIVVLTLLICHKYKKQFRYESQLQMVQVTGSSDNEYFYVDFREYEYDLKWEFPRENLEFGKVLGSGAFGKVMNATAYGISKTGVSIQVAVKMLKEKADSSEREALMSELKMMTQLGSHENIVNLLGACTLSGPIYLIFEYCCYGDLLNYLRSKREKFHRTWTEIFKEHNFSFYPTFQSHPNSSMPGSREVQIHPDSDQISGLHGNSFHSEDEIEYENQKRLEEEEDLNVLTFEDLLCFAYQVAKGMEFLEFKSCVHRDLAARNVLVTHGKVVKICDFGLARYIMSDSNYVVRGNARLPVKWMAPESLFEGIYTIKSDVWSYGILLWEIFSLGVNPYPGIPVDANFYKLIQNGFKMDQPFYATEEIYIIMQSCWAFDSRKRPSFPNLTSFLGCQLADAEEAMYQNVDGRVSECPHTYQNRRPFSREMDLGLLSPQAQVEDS
Text: (§1) We assessed the selectivity of members of this scaffold using the KINOMEscan methodology across a near comprehensive panel of 442 kinases [[18,27]].

panel of 442 kinases [2] = biological target: T2, panel of 442 kinases (Homo sapiens, UniProt Q9BYT3); settings: kinase STK33; compound concentration 10 µM
T2 construct: purchased KINOMEscan
Text: as §1

panel of 442 kinases [3] = biological target: T3, panel of 442 kinases (Homo sapiens, UniProt P00533); settings: Compound Concentration 10 µM
T3 construct: purchased KINOMEscan
Text: as §1

T2 sequence (Q9BYT3 whole entry): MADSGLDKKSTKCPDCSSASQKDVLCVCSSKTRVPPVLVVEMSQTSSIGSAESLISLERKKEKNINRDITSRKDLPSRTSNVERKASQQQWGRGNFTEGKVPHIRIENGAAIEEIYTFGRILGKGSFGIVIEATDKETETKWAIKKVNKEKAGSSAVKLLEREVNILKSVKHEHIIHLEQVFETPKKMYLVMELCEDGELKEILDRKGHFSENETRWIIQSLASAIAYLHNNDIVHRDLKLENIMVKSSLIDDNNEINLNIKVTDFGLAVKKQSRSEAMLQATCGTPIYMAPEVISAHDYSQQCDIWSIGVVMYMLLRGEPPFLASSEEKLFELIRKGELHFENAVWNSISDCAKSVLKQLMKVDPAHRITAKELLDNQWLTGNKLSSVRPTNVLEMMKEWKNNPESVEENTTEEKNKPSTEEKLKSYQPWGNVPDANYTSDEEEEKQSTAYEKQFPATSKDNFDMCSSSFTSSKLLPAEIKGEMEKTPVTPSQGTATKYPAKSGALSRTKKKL
T3 sequence (P00533 25-1210): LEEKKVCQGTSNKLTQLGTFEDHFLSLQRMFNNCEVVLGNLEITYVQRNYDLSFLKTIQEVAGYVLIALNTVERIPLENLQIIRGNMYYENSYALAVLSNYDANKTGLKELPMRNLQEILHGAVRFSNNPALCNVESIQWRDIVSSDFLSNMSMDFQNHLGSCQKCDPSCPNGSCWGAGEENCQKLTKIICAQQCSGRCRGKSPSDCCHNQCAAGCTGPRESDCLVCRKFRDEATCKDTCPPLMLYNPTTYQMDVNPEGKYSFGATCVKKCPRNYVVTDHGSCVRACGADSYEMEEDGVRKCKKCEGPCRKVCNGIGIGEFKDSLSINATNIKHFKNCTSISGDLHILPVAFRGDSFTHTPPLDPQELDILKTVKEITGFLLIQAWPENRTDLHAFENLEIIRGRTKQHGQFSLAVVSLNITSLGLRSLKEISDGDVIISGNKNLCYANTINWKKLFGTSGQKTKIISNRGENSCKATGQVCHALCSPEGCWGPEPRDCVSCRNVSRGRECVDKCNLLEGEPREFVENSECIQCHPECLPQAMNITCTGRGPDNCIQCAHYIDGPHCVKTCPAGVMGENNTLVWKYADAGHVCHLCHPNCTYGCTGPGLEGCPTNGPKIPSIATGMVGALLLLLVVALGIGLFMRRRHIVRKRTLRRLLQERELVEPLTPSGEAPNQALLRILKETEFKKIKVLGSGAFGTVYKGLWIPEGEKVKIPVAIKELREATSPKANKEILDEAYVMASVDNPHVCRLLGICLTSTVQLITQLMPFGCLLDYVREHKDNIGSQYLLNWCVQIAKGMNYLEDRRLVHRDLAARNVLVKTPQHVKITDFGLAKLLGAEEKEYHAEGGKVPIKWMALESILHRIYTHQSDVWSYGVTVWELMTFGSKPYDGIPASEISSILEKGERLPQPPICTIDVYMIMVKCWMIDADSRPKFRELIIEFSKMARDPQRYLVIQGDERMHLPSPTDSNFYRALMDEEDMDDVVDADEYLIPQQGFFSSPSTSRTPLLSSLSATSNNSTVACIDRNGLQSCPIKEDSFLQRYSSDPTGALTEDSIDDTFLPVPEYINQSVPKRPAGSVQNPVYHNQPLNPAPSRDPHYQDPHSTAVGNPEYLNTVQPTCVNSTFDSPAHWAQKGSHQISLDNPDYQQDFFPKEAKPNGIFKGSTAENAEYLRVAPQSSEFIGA

Row | Structure (SMILES) | KINOMEscan: FLT3(D835Y) (panel of 442 kinases [1]) | % Ctrl, STK33 (panel of 442 kinases [2]) | KINOMEscan: EGFR (panel of 442 kinases [3])
1 | COc1cc(C(=O)N2CCC(N3CCN(C)CC3)CC2)ccc1Nc1ncc2c(n1)N(C)c1ccccc1C(=O)N2C [15 (LRRK2-IN-1)] | 100 | 10 % Ctrl | 84
2 | COc1cc(C(=O)N2CCC(N3CCN(C)CC3)CC2)ccc1Nc1ncc2c(n1)N1CCc3cccc(c31)C(=O)N2C [Compound 24] |  |  | 74
3 | COc1cc(C(=O)N2CCC(N3CCN(C)CC3)CC2)ccc1Nc1ncc2c(n1)N(C1CCCC1)c1ccccc1C(=O)N2C [Compound 25, 11-cyclopentyl-2-((2-methoxy-4-(4-(4-methylpiperazin-1-yl)piperidine-1-carbonyl)phenyl)amino)-5-methyl-5H-benzo[e]pyrimido[5,4-b][1,4]diazepin-6(11H)-one] | 100 | 81 % Ctrl | 89
4 | CCOc1cc(C(=O)N2CCC(N3CCN(C)CC3)CC2)ccc1Nc1ncc2c(n1)N(C1CCCC1)c1ccccc1C(=O)N2C [Compound 26] | 100 | 100 % Ctrl | 100
